Read-outs that look alike come from different tables or passages of the source.
Experiments:
[1] = target: α-glucosidase from Saccharomyces cerevisiae; assay: α-glucosidase inhibition assay (p-NPG substrate, pNP release over 60 min); format: biochemical; details: for IC50: compounds and acarbose, max concentration tested 1 mM, '-' = no inhibitory activity at maximum dose tested
Method: (§1) The α-amylase and α-glucosidase assays were evaluated using α-amylase from porcine pancreas (Type IV-B, Sigma A3176, St. Louis, MO, USA) and α-glucosidase from Saccharomyces cerevisiae (Tipe I, Sigma G5003, St. Louis, MO, USA). Starch was used as substrate for α-amylase and p-Nitrophenyl-α-D-glucopiranoside (p-NPG-Sigma, N1377) was used as substrate for α-glucosidase. For both enzymatic tests, a microplate reader (EPOCH 2, Biotek Instruments Inc. Winoosky, VT, USA) was used.
α-Glucosidase inhibitory activity was determined using a 96-well microtiter plate with p-nitrophenyl-α-D-glucopyranoside as the substrate, according to the method describe by Tao et al. [32], with slight modifications. Sample solutions were prepared by dissolving 10 mg in 1 mL MeOH:H2O (50:50). Several dilutions in PBS were made in case of getting complete enzyme inhibition. First, 75 μL of PBS (SIGMA-P4417) was mixed with 5 μL of the sample and 20 μL of the enzyme solution (0.15 U/mL in PBS pH 7.4), then it was pre-incubated at 37 °C for 5 min prior to the initiation of the reaction by adding the substrate. After pre-incubation, 20 μL of PNPG (5 mM in phosphate buffer, pH 7.4) was added and then incubated at 37 °C. […] The results were expressed as inhibition percentage by means of the formula described by Choi et al. [33] as follows: (2) Inhibition (%)=[(Ao−As)/Ao]×100 where A0 is the absorbance recorded for the enzymatic activity without inhibitor (control), and As is the absorbance recorded for the enzymatic activity in presence of the inhibitor (sample). IC50 value was calculated by curve fitting of data (GraphPad Prism 5.0).

[2] = target: T1, α-amylase from porcine pancreas (Sus scrofa, UniProt P00690); assay: α-amylase inhibitory activity (starch-iodine method); format: biochemical
T1 sequence (P00690 16-511): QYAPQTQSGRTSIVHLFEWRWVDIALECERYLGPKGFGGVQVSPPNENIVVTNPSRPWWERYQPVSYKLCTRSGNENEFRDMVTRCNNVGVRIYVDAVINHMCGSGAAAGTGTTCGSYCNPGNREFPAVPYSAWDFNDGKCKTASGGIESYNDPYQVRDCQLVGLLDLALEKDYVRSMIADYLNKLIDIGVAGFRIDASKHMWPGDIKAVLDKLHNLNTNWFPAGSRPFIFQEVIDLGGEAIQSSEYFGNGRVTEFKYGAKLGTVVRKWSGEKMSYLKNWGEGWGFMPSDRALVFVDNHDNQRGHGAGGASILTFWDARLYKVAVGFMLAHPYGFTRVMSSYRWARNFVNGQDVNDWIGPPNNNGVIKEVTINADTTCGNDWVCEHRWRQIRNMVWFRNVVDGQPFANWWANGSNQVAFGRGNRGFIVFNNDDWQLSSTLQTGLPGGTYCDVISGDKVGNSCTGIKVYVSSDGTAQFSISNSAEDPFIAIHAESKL
Method: as §1
The inhibitory activity is measured according to the method reported by Xiao et al. [30] with slight modifications. […] Starch solution was prepared by dissolving 1 g in 50 mL of 0.4 M NaOH and heated for 5 min at 100 °C. After cooling in iced water, the solution pH was adjusted to 7 with 2 M HCl and H2O was added to complete 100 mL. Sample solutions were prepared by dissolving 10 mg in 1 mL MeOH:H2O (50:50). Several dilutions in PBS (SIGMA-P4417) were made in case of getting complete enzyme inhibition. PBS solution (35 μL), substrate (35 μL) and sample (5 μL) solutions were mixed in a 96-well microtiter plate, and the mixture was pre-incubated at 37 °C for 1 min. Then, 20 μL of a 50 μg/mL α-amylase solution was added to each well. The plate was incubated for 15 min. […] The absorbance was measured in a microplate reader (EPOCH 2, Biotek Instruments Inc. Winoosky, VT, USA) at 580 nm. Inhibitory activity (%) was calculated according to the formula described by Kusano et al. [31] as follows: (1) Inhibition (%)=[1−(ABS2−ABS1)/(ABS4−ABS3)×100] where ABS1 is the absorbance of the incubated solution containing sample, starch and amylase, ABS2 is the absorbance of incubated solution containing sample and starch, ABS3 is the absorbance of incubated solution containing starch and amylase, and ABS4 is the absorbance of incubated solution containing starch. IC50 value was calculated by curve fitting of data (GraphPad Prism 5.0, GraphPad Software, Inc., La Jolla, CA, USA).

[3] = compounds and acarbose; max concentration tested 1 mM; '-' = inactive at maximum dose tested (<35% inhibition); read-out: IC50 α-amylase
[4] = read-out: IC50 α-amylase; compounds and acarbose; max concentration tested 1 mM; '-' = inactive at maximum dose tested (<35% inhibition)

Row | IC50 [2, 3] [µM] | Structure (SMILES) | IC50 [1] [µM] | enzyme inhibition (α-glucosidase) ([1]; at the maximum dose tested (1 mM for compounds)) [%] | IC50 [2, 4] [µM]
1 | > 62.5 | CCCCC/C=C\C/C=C\CCCCCCCC(=O)O [Compound 6, Linoleic acid] | 0.42 |  | 
2 |  | O=C(O)/C=C/c1ccc(O)cc1 [Compound 5, Trans-p-coumaric acid] | > 41.7 | 27 | > 62.5
3 |  | C[C@@H]1O[C@@H](Oc2c(-c3ccc(O)c(O)c3)oc3cc(O)cc(O)c3c2=O)[C@H](O)[C@H](O)[C@H]1O [Compound 9, Quercitrin] | 7.77 |  | > 62.5
4 | > 62.5 | C=C(C)[C@@H]1CC[C@]2(C)CC[C@]3(C)[C@H](CC[C@@H]4[C@@]5(C)CC[C@H](O)C(C)(C)[C@@H]5CC[C@]43C)[C@@H]12 [Compound 3, Lupeol] | > 41.7 |  | 
5 |  | O=C(O)/C=C\c1ccc(O)cc1 [Compound 2, Cis-p-coumaric acid] | > 41.7 |  | > 62.5
6 | > 62.5 | Oc1cc(O)c2c(c1)O[C@H](c1ccc(O)c(O)c1)[C@@H](O)C2 [Compound 7, (+)-Catechin] | 5.5 |  | 

Row | Structure (SMILES) | IC50 [2, 3] [µM] | IC50 [1] [µM] | enzyme inhibition (α-glucosidase) ([1]; at the maximum dose tested (1 mM for compounds)) [%] | IC50 [2, 4] [µM]
7 | CC[C@H](CC[C@@H](C)[C@H]1CC[C@H]2[C@@H]3CC=C4C[C@@H](O)CC[C@]4(C)[C@H]3CC[C@]12C)C(C)C [Compound 4, β-Sitosterol] | > 62.5 | > 41.7 |  | 
8 | C=C(C)[C@@H]1CC[C@]2(C)CC[C@]3(C)[C@H](CC[C@@H]4[C@@]5(C)CC[C@H](OC(C)=O)C(C)(C)[C@@H]5CC[C@]43C)[C@@H]12 [Compound 1, Lupeol acetate] | > 62.5 | > 41.7 |  | 
